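Assay format: 96-well plates, 48-hour exposure. The concentration for 50% growth inhibition is given as GI50. TGI is the concentration that stops growth completely.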
What was measured:
Assay in all cases: NCI anticancer screen, dose series, 48 h
NCI-H460 lung = test system: NCI-H460 lung
NCI-H522 lung = test system: NCI-H522 lung
NCI/ADR-RES ovarian = test system: NCI/ADR-RES ovarian
OVCAR-3 ovarian = test system: OVCAR-3 ovarian
OVCAR-4 ovarian = test system: OVCAR-4 ovarian
OVCAR-5 ovarian = test system: OVCAR-5 ovarian
OVCAR-8 ovarian = test system: OVCAR-8 ovarian
PC-3 prostate = test system: PC-3 prostate
RPMI-8226 leukemia = test system: RPMI-8226 leukemia
RXF 393 renal = test system: RXF 393 renal
SF-268 CNS = test system: SF-268 CNS
SF-295 CNS = test system: SF-295 CNS
SF-539 CNS = test system: SF-539 CNS
SK-MEL-2 melanoma = test system: SK-MEL-2 melanoma
SK-MEL-28 melanoma = test system: SK-MEL-28 melanoma
SK-MEL-5 melanoma = test system: SK-MEL-5 melanoma
SK-OV-3 ovarian = test system: SK-OV-3 ovarian
SN12C renal = test system: SN12C renal
SNB-19 CNS = test system: SNB-19 CNS
SNB-75 CNS = test system: SNB-75 CNS
SR leukemia = test system: SR leukemia
SW-620 colon = test system: SW-620 colon
T-47D breast = test system: T-47D breast
TK-10 renal = test system: TK-10 renal
U251 CNS = test system: U251 CNS
UACC-257 melanoma = test system: UACC-257 melanoma
UACC-62 melanoma = test system: UACC-62 melanoma
UO-31 renal = test system: UO-31 renal

## COc1cc(-c2nc(-c3ccccc3)c(-c3ccccc3)[nH]2)cc(OC)c1O
NCI-H460 lung
  GI50: 17.3 µM
  TGI: 36.3 µM
NCI-H522 lung
  GI50: 17.6 µM
  TGI: 33.8 µM
NCI/ADR-RES ovarian
  GI50: 24.6 µM
  TGI: 73.8 µM
OVCAR-3 ovarian
  GI50: 18.3 µM
  TGI: 34.2 µM
OVCAR-4 ovarian
  GI50: 17.6 µM
  TGI: 56.8 µM
OVCAR-5 ovarian
  GI50: 15.4 µM
  TGI: 31.7 µM
OVCAR-8 ovarian
  GI50: 26.5 µM
  TGI: 83.2 µM
PC-3 prostate
  GI50: 17.9 µM
  TGI: 50.2 µM
RPMI-8226 leukemia
  GI50: 24.1 µM
  TGI: 83 µM
RXF 393 renal
  GI50: 14.7 µM
  TGI: 31.2 µM
SF-268 CNS
  GI50: 20.1 µM
  TGI: 44.1 µM
SF-295 CNS
  GI50: 17.1 µM
  TGI: 45.5 µM
SF-539 CNS
  GI50: 15.8 µM
  TGI: 30.8 µM
SK-MEL-2 melanoma
  GI50: 19.8 µM
  TGI: 35.5 µM
SK-MEL-28 melanoma
  GI50: 14.9 µM
  TGI: 31.1 µM
SK-MEL-5 melanoma
  GI50: 14.2 µM
  TGI: 27.6 µM
SK-OV-3 ovarian
  GI50: 23.1 µM
  TGI: 47.8 µM
SN12C renal
  GI50: 17.6 µM
  TGI: 37.5 µM
SNB-19 CNS
  GI50: 20.8 µM
  TGI: 52.9 µM
SNB-75 CNS
  GI50: 11.2 µM
  TGI: 26.4 µM
SR leukemia
  GI50: 13.6 µM
  TGI: 51.7 µM
SW-620 colon
  GI50: 16.6 µM
  TGI: 33.1 µM
T-47D breast
  GI50: 13.5 µM
  TGI: 38.7 µM
TK-10 renal
  GI50: 25.1 µM
  TGI: 50.5 µM
U251 CNS
  GI50: 16.3 µM
  TGI: 33.2 µM
UACC-257 melanoma
  GI50: 21.7 µM
  TGI: 44.8 µM
UACC-62 melanoma
  GI50: 15.2 µM
  TGI: 29.6 µM
UO-31 renal
  GI50: 13.2 µM
  TGI: 31 µM

— PubChem BioAssay (NCI)
